# According to patent US6444664B1, “Method for controlling the plasma level of lipoproteins to treat alzheimeris disease” (Nederlandse Organisatie voor Toegepast - Natuurweten …, priority 1997, dated 2002):
# Read-outs that look alike come from different tables or passages of the source.
# Legend:
# [1] = system: apo A-I; experiment: Apo A-I synthesis by cultured cynomolgus (simian) hepatocytes, ELISA of medium; type: cell-based, cynomolgus monkey; details: culture period 48 h to 72 h
# [2] = system: apo B-100; experiment: Apo B-100 synthesis by cultured cynomolgus (simian) hepatocytes, ELISA of medium; type: cell-based, cynomolgus monkey; details: culture period 48 h to 72 h
# [3] = system: apo(a); experiment: Apo(a) synthesis by cultured cynomolgus (simian) hepatocytes, ELISA of medium; type: cell-based, cynomolgus monkey; details: culture period 48 h to 72 h
# [4] = system: apo B-100; experiment: Apo B-100 synthesis by cultured human hepatocytes, ELISA of medium; type: cell-based; details: culture period 48 h to 72 h
# [5] = system: apo A-I; experiment: Apo A-I synthesis by cultured human hepatocytes, ELISA of medium; type: cell-based; details: culture period 48 h to 72 h
# [6] = system: apo(a); experiment: Apo(a) synthesis by cultured human hepatocytes, ELISA of medium; type: cell-based; details: culture period 48 h to 72 h
# [7] = system: apo A-I mRNA; experiment: Apo A-I mRNA levels in cynomolgus hepatocytes, RNA hybridization; type: cell-based, cynomolgus monkey; details: 100 μM, cultured 48 h
# Procedure: (§1) Total RNA was isolated from cynomolgus hepatocytes, cultured for 48 h in the presence or absence of the compounds, by the method of Chomczynski & Sacchi (33). After washing the RNA pellets with 70% (v/v) ethanol, RNA samples were dissolved in water. The RNA concentration in each sample was determined spectrophotometrically, assuming that one A260 unit corresponds with 40 μg RNA/mL. Equal amounts of total RNA (10 μg) from different incubations were fractionated by, elcctrophoresis in a 0.8% (w/v) agarose gel containing 0.27 M formaldehyde, and transferred to Hybond-N+ (Amershamn) in accordance with the manufacturer's instructions and UV cross-linked. Probes, labelling conditions and hybridization were performed as described previously in detail (25).
# (§2) Apo(a) mRNAs were detected using a kringle IV synthetic double-stranded probe of 75 nucleotides with the sense sequence: GGGAATTCGAACCTGCCAAGCTTGGTCATCTATGACACCACACTCGCATAGTCGGACCCC AGAATAAAGCTTGGG, based on the sequence published by McLean et al (34). This probe was labelled by the random primer method according to Megaprime™ DNA labelling systems (Amersham). After hybridization, the blots were washed twice with 2×SSC/1% SDS (1×SSC=0.15 mol/L NaCl/0.015 mol/L sodium citrate, pH 7.0) and twice with 1×SSC/1% SDS for 30 min at 65° C. The blots were exposed to a Fuji imaging plate type BAS-MP for 1 to 24 h. The relative amounts of mRNA were quantified using a phospho-imager (Fuji Fujix BAS 1000) and the computer programs BAS-reader version 2.8 and TINA version 2.08 c.
# (§3) Data shown in table 2 are obtained from measurements using RNA isolated from hepatocytes cultured for 48 h with or without the compounds.
# [8] = system: apo A-I mRNA; experiment: Apo A-I mRNA levels in human hepatocytes, RNA hybridization; type: cell-based; details: 100 μM, cultured 48 h
# [9] = system: apo(a) mRNA; experiment: Apo(a) mRNA levels in human hepatocytes, RNA hybridization; type: cell-based; details: 100 μM, cultured 48 h
# Procedure: as §1, §2, §3
# [10] = system: apo(a) mRNA; experiment: Apo(a) mRNA levels in cynomolgus hepatocytes, RNA hybridization; type: cell-based, cynomolgus monkey; details: 100 μM, cultured 48 h
# Procedure: as §1, §2, §3
# [11] = system: lp(a); details: cited from earlier work
smiles,measurement,setting,value
"COc1cc([C@@H]2OC[C@H](c3cc(OC)c(OC)c(OC)c3)O2)cc(OC)c1OC (relative stereo) [Cisdioxolane, Cis-2,4-bis(3,4,5-trimethoxyphenyl)dioxolane, reference compound]",Apo A-I synthesis,[1]; 100 μM,229 ± 79 (2) % of control
same,Apo B-100 synthesis,[2]; 100 μM,99 ± 21 (3) % of control
same,Apo(a) synthesis,[3]; 100 μM,83 ± 2 (3) % of control
"COc1cc([C@H]2CC[C@H](c3cc(OC)c(OC)c(OC)c3)O2)cc(OC)c1OC (relative stereo) [L-652,731, Trans-2,5-bis(3,4,5-trimethoxyphenyl)tetrahydrofuran, reference compound]",Apo A-I synthesis,[1]; 100 μM,134 ± 1 (2) % of control
same,Apo B-100 synthesis,[2]; 100 μM,76 ± 35 (2) % of control
same,Apo(a) synthesis,[3]; 100 μM,66 ± 8 (2) % of control
"CCCCCCCCCCCCCCCCCCNC(=O)OC[C@@H]1CC[C@H](COP(=O)([O-])OCC[n+]2cccc3ccccc32)O1 (relative stereo) [SRI 63-441, O-cis-5-(octadecylcarbamoyloxymethyl)-2-tetrahydrofurylmethyl O-(2-quinolinio-ethyl) hydrogen phosphate, reference compound]",Apo A-I synthesis,[1]; 100 μM,166 ± 6 (2) % of control
same,Apo B-100 synthesis,[2]; 100 μM,142 ± 32 (2) % of control
same,Apo(a) synthesis,[3]; 100 μM,24 ± 1 (2) % of control
"COc1cc([C@@H]2OC[C@@H](c3cc(OC)c(OC)c(OC)c3)O2)cc(OC)c1OC (relative stereo) [Transdioxolane, Trans-2,4-bis(3,4,5-trimethoxyphenyl)dioxolane, reference compound]",Apo A-I synthesis,[1]; 30 μM,116 ± 7 (3) % of control
same,Apo A-I synthesis,[1]; 100 μM,157 ± 2 (3) % of control
same,Apo B-100 synthesis,[2]; 30 μM,117 ± 23 (3) % of control
same,Apo B-100 synthesis,[2]; 100 μM,105 ± 7 (3) % of control
same,Apo(a) synthesis,[3]; 30 μM,103 ± 9 (3) % of control
same,Apo(a) synthesis,[3]; 100 μM,60 ± 12 (3) % of control
Cc1nnc2n1-c1sccc1C(c1ccccc1)=NC2 [Azepine 1],Apo A-I synthesis,[1]; 3 μM,152 ± 30 (2) % of control
same,Apo A-I synthesis,[1]; 10 μM,185 ± 20 (6) % of control
same,Apo A-I synthesis,[1]; 30 μM,225 ± 45 (6) % of control
same,Apo A-I synthesis,[1]; 100 μM,367 ± 131 (6) % of control
same,Apo B-100 synthesis,[4]; 3 μM,83 ± 16 (2) % of control
same,Apo B-100 synthesis,[4]; 10 μM,112 ± 3 (2) % of control
same,Apo B-100 synthesis,[4]; 30 μM,109 ± 8 (2) % of control
same,Apo B-100 synthesis,[4]; 100 μM,114 ± 8 (2) % of control
same,Apo A-I synthesis,[5]; 3 μM,164 ± 61 (2) % of control
same,Apo A-I synthesis,[5]; 10 μM,283 ± 109 (2) % of control
same,Apo A-I synthesis,[5]; 30 μM,622 ± 228 (2) % of control
same,Apo A-I synthesis,[5]; 100 μM,721 ± 212 (2) % of control
same,Apo(a) synthesis,[6]; 3 μM,75 (1) % of control
same,Apo(a) synthesis,[6]; 10 μM,48 (1) % of control
same,Apo(a) synthesis,[6]; 30 μM,24 (1) % of control
same,Apo(a) synthesis,[6]; 100 μM,14 (1) % of control
same,Apo A-I mRNA levels relative to GAPDH,[7],147 ± 28 (3) % of control
same,Apo A-I mRNA levels relative to actin,[7],328 ± 7 (3) % of control
same,Apo A-I mRNA levels relative to rRNA,[7],229 ± 8 (3) % of control
same,Apo B-100 synthesis,[2]; 3 μM,117 ± 10 (2) % of control
same,Apo B-100 synthesis,[2]; 10 μM,113 ± 20 (6) % of control
same,Apo B-100 synthesis,[2]; 30 μM,106 ± 27 (6) % of control
same,Apo B-100 synthesis,[2]; 100 μM,95 ± 23 (6) % of control
same,Apo A-I mRNA levels relative to GAPDH,[8],111 (1) % of control
same,Apo A-I mRNA levels relative to actin,[8],203 (1) % of control
same,Apo A-I mRNA levels relative to rRNA,[8],308 (1) % of control
same,Apo(a) mRNA levels relative to GAPDH,[9],24 (1) % of control
same,Apo(a) mRNA levels relative to actin,[9],44 (1) % of control
same,Apo(a) mRNA levels relative to rRNA,[9],67 (1) % of control
same,Apo(a) synthesis,[3]; 3 μM,85 ± 5 (2) % of control
same,Apo(a) synthesis,[3]; 10 μM,76 ± 19 (6) % of control
same,Apo(a) synthesis,[3]; 30 μM,48 ± 28 (6) % of control
same,Apo(a) synthesis,[3]; 100 μM,34 ± 32 (6) % of control
same,Apo(a) mRNA levels relative to GAPDH,[10],39 ± 4 (3) % of control
same,Apo(a) mRNA levels relative to actin,[10],86 ± 7 (3) % of control
same,Apo(a) mRNA levels relative to rRNA,[10],56 ± 12 (3) % of control
c1ccc(C2=NCc3nncn3-c3sccc32)cc1 [Azepine 2],Apo A-I synthesis,[1]; 30 μM,178 (1) % of control
same,Apo(a) synthesis,[3]; 30 μM,no change
Cc1nnc2n1-c1ccc(Cl)cc1C(c1ccccc1)=NC2C (stereo not shown) [Azepine 3],Apo A-I synthesis,[1]; 100 μM,359 ± 74 (3) % of control
same,Apo B-100 synthesis,[2]; 100 μM,102 ± 32 (2) % of control
same,Apo(a) synthesis,[3]; 100 μM,42 ± 20 (3) % of control
Brc1nnc2n1-c1ccccc1C(c1ccccc1)=NC2 [Azepine 4],Apo A-I synthesis,[1]; 100 μM,390 ± 40 (2) % of control
same,Apo B-100 synthesis,[2]; 100 μM,95 ± 23 (2) % of control
same,Apo(a) synthesis,[3]; 100 μM,62 ± 22 (2) % of control
"CC1C(=O)OC2C(O)C34C5CC(C(C)(C)C)C36C(OC(=O)C6O)OC4(C(=O)O5)C12O (stereo not shown) [BN 52051, Ginkgolide B, reference compound]",Apo A-I synthesis,[1]; 100 μM,144 ± 34 (2) % of control
same,Apo B-100 synthesis,[2]; 100 μM,113 ± 34 (2) % of control
same,Apo(a) synthesis,[3]; 100 μM,101 ± 1 (2) % of control
O=C(O)c1cccnc1 [nicotinic acid],Reduction of plasma levels of lp(a),[11]; alone (4 g/day),~38%
same,Reduction of plasma levels of lp(a),[11]; in combination with neomycine (3 g/day and 2 g/day respectively),~45%
